The compounds below were run against T1, human 20S proteasome (Homo sapiens, UniProt P20618+P28074) (assay: Kinetic assay of 20S proteasome chymotryptic activity (Suc-LLVY-AMC)). Conditions: Suc-LLVY-AMC substrate, pH 7.8, 37° C., competitive inhibition model.
T1 construct: purchased
Format: biochemical
Procedure: Kinetic assays were performed on a fluorescent 96-well plate reader with human 20S proteasome. Chymotryptic activity was measured in 20 mM HEPES, 0.5 mM EDTA, 0.037% SDS, pH 7.8 at 37° C., using 0-100 μM Suc-LLVY-AMC as the fluorogenic substrate, and […] 4.42×10^−4 mg/100 μL enzyme.
Triplicates of velocities (fluorescence vs time) were obtained at various concentrations of substrate ([…]) and aza-peptide inhibitor (0, 25, 50, 100 μM) then converted to specific activity using Lambert-Beer's law and enzyme concentration.
Enzyme specific activities were fit to a competitive inhibition model using GraphPad Prism software for nonlinear fitting.

Row | Ki [µM] | Ki (μM) | SMILES
1 | 44 |  | CC(C)C[C@H](NC(=O)OCc1ccccc1)C(=O)N[C@@H](CC(C)C)C(=O)NN(C)C(=O)C=O [Z-Leu-Leu-AAla-COH, Benzyl ((S)-4-methyl-1-(((S)-4-methyl-1-(2-methyl-2-(2-oxoacetyl)hydrazinyl)-1-oxopentan-2-yl)amino)-1-oxopentan-2-yl)carbamate]
2 | 73 |  | CC(=O)C(=O)N(C)NC(=O)[C@H](CC(C)C)NC(=O)[C@H](CC(C)C)NC(=O)OCc1ccccc1 [Z-Leu-Leu-AAla-COMe, Benzyl ((S)-4-methyl-1-(((S)-4-methyl-1-(2-methyl-2-(2-oxopropanoyl)hydrazinyl)-1-oxopentan-2-yl)amino)-1-oxopentan-2-yl)carbamate]
3 | 35 |  | CC(C)C[C@H](NC(=O)OCc1ccccc1)C(=O)N[C@@H](CC(C)C)C(=O)NNC(=O)C=O [Z-Leu-Leu-AGly-COH, Benzyl ((S)-4-methyl-1-(((S)-4-methyl-1-oxo-1-(2-(2-oxoacetyl)hydrazinyl)pentan-2-yl)amino)-1-oxopentan-2-yl)carbamate]
4 | 29 |  | CC(=O)C(=O)NNC(=O)[C@H](CC(C)C)NC(=O)[C@H](CC(C)C)NC(=O)OCc1ccccc1 [Z-Leu-Leu-AGly-COMe, Benzyl((S)-4-methyl-1-(((S)-4-methyl-1-oxo-1-(2-(2-oxopropanoyl)hydrazinyl)pentan-2-yl)amino)-1-oxopentan-2-yl)carbamate]
5 | 81 |  | CC(C)C[C@H](NC(=O)OCc1ccccc1)C(=O)N[C@@H](CC(C)C)C(=O)NN(CC(C)C)C(=O)C(=O)Cc1ccccc1 [Z-Leu-Leu-ALeu-COBn, Benzyl ((S)-1-(((S)-1-(2-isobutyl-2-(2-oxo-3-phenylpropanoyl)hydrazinyl)-4-methyl-1-oxopentan-2-yl)amino)-4-methyl-1-oxopentan-2-yl)carbamate]
6 | 24 |  | CC(C)C[C@H](NC(=O)OCc1ccccc1)C(=O)N[C@@H](CC(C)C)C(=O)NN(CC(C)C)C(=O)C=O [Z-Leu-Leu-ALeu-COH, Benzyl ((S)-1-(((S)-1-(2-isobutyl-2-(2-oxoacetyl)hydrazinyl)-4-methyl-1-oxopentan-2-yl)amino)-4-methyl-1-oxopentan-2-yl)carbamate]
7 | 27 |  | CC(=O)C(=O)N(CC(C)C)NC(=O)[C@H](CC(C)C)NC(=O)[C@H](CC(C)C)NC(=O)OCc1ccccc1 [Z-Leu-Leu-ALeu-COMe, Benzyl((S)-1-(((S)-1-(2-isobutyl-2-(2-oxopropanoyl)hydrazinyl)-4-methyl-1-oxopentan-2-yl)amino)-4-methyl-1-oxopentan-2-yl)carbamate]
8 |  | weak | CCOC(=O)C(=O)N(CC(C)C)NC(=O)[C@H](CC(C)C)NC(=O)[C@H](CC(C)C)NC(=O)OCc1ccccc1 [Z-Leu-Leu-ALeu-COOEt, Ethyl 2-(2-(((benzyloxy)carbonyl)-L-leucyl-L-leucyl)-1-isobutylhydrazinyl)-2-oxoacetate]
9 | 55 |  | CC(C)C[C@H](NC(=O)OCc1ccccc1)C(=O)N[C@@H](Cc1ccccc1)C(=O)NN(CC(C)C)C(=O)C(=O)Cc1ccccc1 [Z-Leu-Phe-ALeu-COBn, Benzyl ((S)-1-(((S)-1-(2-isobutyl-2-(2-oxo-3-phenylpropanoyl)hydrazinyl)-1-oxo-3-phenylpropan-2-yl)amino)-4-methyl-1-oxopentan-2-yl)carbamate]
10 | 47 |  | CC(=O)C(=O)N(CC(C)C)NC(=O)[C@H](Cc1ccccc1)NC(=O)[C@H](CC(C)C)NC(=O)OCc1ccccc1 [Z-Leu-Phe-ALeu-COMe, Benzyl((S)-1-(((S)-1-(2-isobutyl-2-(2-oxopropanoyl)hydrazinyl)-1-oxo-3-phenylpropan-2-yl)amino)-4-methyl-1-oxopentan-2-yl)carbamate]

The compounds below were run against legumain (assay: Legumain inhibition kinetic assay). Conditions: not given.
Format: biochemical
Procedure: (§1) Generally, for the 20S proteasome the enzymatic hydrolysis of fluorogenic substrate Suc-LLVY-AMC by the 20S proteasome is monitored continuously for chymotrypsin-like (CT-L) activity at λexc=360, λem=460 nm for 45 min at 30° C. under standard assay conditions (Assay buffer: pH 7.5, 20 mM Tris, 0.02% w/v SDS, 1 mM EDTA, 2% v/v DMSO). Caspase activities are measured in 100 mM HEPES, 10% sucrose, 0.1% CHAPS, 10 mM DTT, pH 7.5 and 25° C.^21 Legumain activity is measured in 0.1 M citrate-phosphate buffer at pH 6.8 containing 4 mM DTT with Cbz-AAN-AMC as the substrate^9b. Activity of the MALT1 active fragment (aa325-769) is detected by cleavage of the tetra-peptide substrate LRSR-AMC (7-amino-4-methylcoumarin) that results in fluorescence emission when AMC is released. IC50 values are determined for the new compounds by dose-dependent inhibition. In parallel, well-characterized MALT1 inhibitors (e.g. Z—VRPR-FMIK, mepazine, MI-2) are used as reference compounds. Cathepsin B activity is performed in 0.1 M phosphate, 1.25 mM EDTA, 0.01% Brij, pH 6.0. Papain activity is measured in 10 mM DTT, 50 mM phosphate, pH 6.2. Trypsin activity is performed in 0.046 M Tris/HCl buffer at pH 8.1 with 0.0115 M CaCl2.
(§2) Results from kinetic assays for compounds tested against the 20S proteasome, caspase-3, and legumain are shown in Table 4, Table 5, and Table 6, respectively.

Row | Ki (μM) | SMILES
11 | Weak | C[C@H](NC(=O)OCc1ccccc1)C(=O)N[C@@H](C)C(=O)NN(CC(N)=O)C(=O)C(=O)Cc1ccccc1 [Z-Ala-Ala-AAsn-COBn, Benzyl((S)-1-(((S)-1-(2-(2-amino-2-oxoethyl)-2-(2-oxo-3-phenylpropanoyl) hydrazinyl)-1-oxopropan-2-yl)amino)-1-oxopropan-2-yl)carbamate]
12 | Weak | CC(=O)C(=O)N(CC(N)=O)NC(=O)[C@H](C)NC(=O)[C@H](C)NC(=O)OCc1ccccc1 [Z-Ala-Ala-AAsn-COMe, Benzyl ((S)-1-(((S)-1-(2-(2-amino-2-oxoethyl)-2-(2-oxopropanoyl)hydrazinyl)-1-oxopropan-2-yl)amino)-1-oxopropan-2-yl)carbamate]
13 | Weak | CCOC(=O)C(=O)N(CC(N)=O)NC(=O)[C@H](C)NC(=O)[C@H](C)NC(=O)OCc1ccccc1 [Z-Ala-Ala-AAsn-COOEt, Ethyl 2-(1-(2-amino-2-oxoethyl)-2-(((benzyloxy)carbonyl)-L-alanyl-L-alanyl)hydrazinyl)-2-oxoacetate]

The compounds below were run against T2, caspase-3 (Homo sapiens, UniProt P42574) (assay: Caspase 3 inhibition kinetic assay). Conditions: not given.
T2 construct: Professor Guy Salvesen, Burnham Institute (gift, not a purchase)
T2 sequence (P42574 29-175 limits assumed): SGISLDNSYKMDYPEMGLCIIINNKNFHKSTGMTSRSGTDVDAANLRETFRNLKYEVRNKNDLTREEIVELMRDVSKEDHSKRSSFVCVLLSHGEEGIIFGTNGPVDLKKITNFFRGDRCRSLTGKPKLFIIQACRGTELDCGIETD
Format: biochemical
Procedure: as §1, §2

Row | IC50 [nM] | SMILES
14 | 55 | CC(=O)C(=O)N(CC(=O)O)NC(=O)[C@@H](NC(=O)[C@H](CCC(=O)O)NC(=O)[C@H](CC(=O)O)NC(=O)OCc1ccccc1)C(C)C [Z-Asp-Glu-Val-AAsp-COMe, (5S,8S,11S)-8-(2-carboxyethyl)-5-(carboxymethyl)-11-isopropyl-3,6,9,12-tetraoxo-14-(2-oxopropanoyl)-1-phenyl-2-oxa-4,7,10,13,14-pentaazahexadecan-16-oic acid]
15 | 4.5 | CC(C)[C@H](NC(=O)[C@H](CCC(=O)O)NC(=O)[C@H](CC(=O)O)NC(=O)OCc1ccccc1)C(=O)N[C@H](C=O)CC(=O)O [Z-Asp-Glu-Val-Asp-COH, reference compound]

— patent US20190055283A1, “AZA-PEPTIDE ALDEHYDES AND KETONES” (OHIO STATE INNOVATION FOUNDATION, priority 2016, published 2019)
